Results published in patent US8188296B2, “Gentisic acid for stabilising 123-I radiopharmaceuticals” (GE Healthcare Limited, priority 2005, dated 2012).

Experiments:
Type in all cases: physicochemical
[1] = Discolouration / heat sterilisation stability of stabiliser stock solutions
Text: A preferred biocompatible carrier medium for the stabiliser stock solution comprises an aqueous solution at a pH suitable for intravenous administration. A preferred such aqueous solution is a buffer solution, most preferably phosphate buffer. When the radiopharmaceutical is ^123I-IBZM, the pH of the buffered stock solution is suitably pH 5 to 8, preferably 5.4 to 7, most preferably 5.7 to 6.3. As noted above, gentisic acid solutions tend to suffer from discoloration problems. […] The stock solutions may be prepared under non-sterile conditions, followed by terminal sterilisation using e.g. gamma-irradiation, autoclaving, dry heat or chemical treatment (e.g. with ethylene oxide). Alternatively, the stock solutions may be prepared under aseptic manufacture conditions to give the desired sterile, pyrogen-free product. Preferably the sterile stock solutions are prepared by terminal sterilisation, most preferably by autoclaving. Such autoclaving involves steam heating at over 121° C., so represents stress conditions wherein unwanted chemical reactions might be expected. […] It is therefore surprising that the lack of discolouration for gentisic acid can be maintained under such conditions.

[2] = Radiochemical purity (TLC) of 123I-IBZM solutions stored at ambient temperature, GA vs AA stabiliser (Example 1); conditions: at the moment of use; stabiliser named as label
Method: ^123I-IBZM was prepared by the method of Bobeldijk et al [J. Lab. Comp. Radiopharm., 28, 1247-1256 (1990)]. A small series of ^123I-IBZM solutions was prepared: to each vial 200 μl of ^123I-IBZM in EtOH (925 MBq/cm^3) was added and subsequently 2.3 ml of aqueous phosphate buffer solution optionally containing a stabiliser, in such a way that the resulting ethanol content was 8% and the radioactive concentration at calibration time was 74 MBq/cm^3 (2 mCi/ml).
The vials were stored at ambient temperature and the radiochemical purity (RCP) was determined by thin layer chromatography (TLC) at the time of dilution with phosphate buffer and at 24 and 48 hours afterwards.

[3] = Radiochemical purity of 123I-IBZM solutions made with autoclaved stabiliser stock solutions (Example 3); conditions: stock solution sterilised in an autoclave at 121 °C
Method: Stock solutions of the stabilisers shown were prepared, purged with argon gas and then sealed under argon in a septum-sealed vial with a Teflon™ coated rubber stopper.
The solutions were sterilised by autoclaving for 15 minutes at 121° C., and then allowed to cool to ambient temperature before use.
A small series of ^123I-IBZM solutions was prepared: to each vial ^123I-IBZM in EtOH (925 MBq/cm^3) was added and subsequently an aqueous phosphate buffer solution containing a stabiliser as specified in Table 3 (below), in such a way that the resulting ethanol content was 8% and the radioactive concentration at calibration time was 74 MBq/cm^3 (2 mCi/ml). The RCP of each vial was determined 3 hours after preparation and after storage at room temperature for 51 hours.

[4] = Radiochemical purity of 123I-IBZM vs gentisic acid concentration in stock solution (Example 4, FIG. 1); conditions: 0 to 0.39% w/v gentisic acid, pH 5.8, 74 MBq/ml, room temperature
Method: A phosphate buffer solution (300 ml) was divided into 6 vials each of 50 ml with various amounts of gentisic acid, corresponding to w/v concentrations of 0%, 0.024%, 0.050%, 0.10%, 0.20% and 0.39%. The pH was checked, and if necessary adjusted by the addition of NaOH to obtain a pH of 5.8 (±0.1). The vials were stoppered with Teflon™ coated rubber stoppers and sterilised for 15 min at 121° C.
An ethanolic solution of ^123I-IBZM (activity concentration at REF: 925 MBq/ml (25 mCi/ml)) was divided over 6 vials and into each was added an aliquot of the 6 gentisic acid buffer solutions from step (a) to obtain a final solution with a total activity content of 185 MBq (5 mCi), at a RAC of 74 MBq/ml (2 mCi/ml) and an ethanol content of 8%. The vials were stoppered with a Teflon™ coated rubber stopper and stored at room temperature. The RCP was measured at various time points after EOS.

[5] = Radiochemical purity of 123I-mIBG in phosphate buffer with stabilisers (Example 5); conditions: compared with benzyl alcohol
Method: Two series of 5 vials of ^123I-mIBG solutions were prepared: to each vial an aliquot of 0.5 cm^3 of freshly prepared ^123I-mIBG in (stabiliser-free) Phosphate buffer (360 MBq/cm^3) was added and subsequently an aliquot of 2.0 cm^3 of an aqueous phosphate buffer solution containing a stabiliser as specified in Table 4 (below), followed by mixing. The final mixtures were not heat sterilized. The total activity per vial was 185 MBq with an RAC of 74 MBq/ml. The specific activity was 992 GBq/g mIBG base. Vials A1 to E1 were stored at 40° C. and vials A2 to E2 at 20° C. The RCP was determined at the EOS (end of synthesis) and at 3, 20 and 45 hours thereafter.

| Structure (SMILES) | stability to heat sterilisation (autoclaving, over 121 °C) in buffer solution ([1]; buffer solution) | principal radiochemical impurity (free 123I-iodide) in the 123I-IBZM preparation [2] [%] | discolouration of sterile solutions in aqueous buffer on storage ([1]; oxygen gas in the environment minimised) | discolouration of solutions on autoclave sterilisation ([1]; oxygen not excluded, autoclave) | stabilisation of 123I-IBZM (in words) [3] | stabilisation of 123I-IBZM vs stabiliser concentration (in words) [4] | stabilisation of 123I-MIBG (in words) [5] |
| --- | --- | --- | --- | --- | --- | --- | --- |
| O=C1O[C@H]([C@@H](O)CO)C(O)=C1O [ascorbic acid, reference compound] | does not withstand such heat sterilisation in buffer solution | 4 to 5 |  |  |  |  |  |
| O=C(O)c1cc(O)ccc1O [gentisic acid, 2,5-dihydroxybenzoic acid] |  | 2 to 3 | do not discolour even on storage for more than a year | visible discolouration does occur | still an effective stabiliser | little or no additional stabilisation benefit is obtained | effective at much lower concentrations than benzyl alcohol |
